Key:
Red blood cells (RBC) = experiment: RBC survival (cell count) after freezing/thawing or lyophilizing/rehydrating at 2.5 ml; type: cell-based; details: thawed, not lyophilized
Protocol: Red blood cells (RBC) were separated from whole blood received from the Israeli Blood Bank. The blood was centrifuged for 10 minutes at 1500 g and the plasma was discarded. […] Afterwards the supernatant was discarded, and an equal volume of cryopreservation solution selected from the solutions in Table I was added to the packed RBC. Different volumes (2.5-50 ml) of the RBC suspension were transferred to a 16-25 mm diameter glass test tube ([…], Israel). The experiment of freezing 200 ml of RBC suspension was done in a 2000 ml freezing bag (Baxter-Fenwal, USA). Samples were then either frozen and thawed in a water bath at 37° C. or lyophilized and rehydrated with double distilled water (DDW) at 37° C. Glass test tubes containing RBC were frozen in a modified MTG freezing apparatus, as described in WO 03/020874 (manufactured by IMT, Israel). The thermal gradient in the cooling unit was set to 5.5° C./mm or 10.5° C./mm or 15.5° C./mm (as detailed below) with final temperatures of -50° C., -100° C. or -150° C. […] During freezing the test tubes that contained only 2.5 ml samples were rotated at a rate of 56 rpm. Subsequent to freezing, biological material was taken from each test tube to test for cell viability. Lyophilization was performed in a commercial lyophilizer (Labconco, USA) with a condenser temperature of -82° C. for 72 hours. The biological material was is rehydrated by adding DDW to reach the sample's original volume. Frozen (but not lyophilized) material was thawed by immersion in a water bath at 37° C. for until it melted. Melting was observed visually. Cells were counted using the […] 60 cell counter (ABX, France), in accordance with the manufacturer's manual. This device provides a complete cell count (CBC) that includes parameters such as: cell number, hematocrit, mean cell volume, hemoglobin, etc. […] In these experiments the cell suspension volume was 2.5 ml.

RBC = details: introduction of trehalose into fresh RBC, not frozen or freeze-dried; Satpathy et al. 2004; cited from earlier work

SMILES: OC[C@H]1O[C@H](O[C@H]2O[C@H](CO)[C@@H](O)[C@H](O)[C@H]2O)[C@H](O)[C@@H](O)[C@@H]1O [Trehalose, reference compound]
- RBC survival, 1A Thawed (Red blood cells (RBC); frozen at 1,000° C./min, percentage of total fresh cells counted): 89.04%
- RBC survival, 2A Thawed (Red blood cells (RBC); frozen at 2,000° C./min): 93.24%
- hemolysis (RBC): causes significant hemolysis

— patent publication US8512941B2, “Biological material and methods and solutions for preservation thereof” (Core Dynamics Limited, priority 2004, dated 2013)
